Laboratory results: US9127016B2, “Small molecule inhibitors of Dusp6 and uses therefor” (University of Pittsburgh—Of the Commonwealth System of …, priority 2009, dated 2015)
One block for each compound: values may come before it.

Tests used:
[1] = tested on: FGF signaling (d2EGFP reporter); assay: BCI analog SAR: d2EGFP intensity in transgenic zebrafish embryos by densitometry; format: in vivo; settings: 20 μM, 24 hpf embryos, 6 h; for Activity (BCI = 100): d2EGFP intensity in the dorsal region
Description: Transgenic zebrafish embryos (24 hpf) were treated with 20 μM solution of BCI analogs in 0.5% aq DMSO and fluorescence photomicrographs were taken after 6 h. The effectiveness of BCI analogs was evaluated by densitometry (ImageJ) of d2EGFP intensity in the dorsal region.

[2] = tested on: FGF signaling (Tg(Dusp6:d2EGFP)pt6 reporter); assay: Transgenic zebrafish chemical screen, d2EGFP fluorescence; format: in vivo; settings: 24 hpf embryos, 6-8 hours; analogs even at four-fold higher concentrations
Description: Tg(dusp6:d2EGFP)pt6 embryos were obtained by natural crossings and incubated at 28.5° C. until they reached 24 hpf. Five transgenic embryos were placed into each well from a 96-well plate in 200 μl of E3, and a 0.5% DMSO solution was added along with compound from each library at 10 μM. The NCI diversity set (NCl/NIH), the Natural Products library (MicroSource Discovery Systems Inc.) and Phosphatase targeted set (Chembridge) were screened in this study. (E)-2-Benzylidene-3-(cyclohexylamino)-2,3-dihydro-1H-inden-1-one (BCI; also known as NSC150117) was identified as a compound that enhanced fluorescence in treated transgenic embryos. Treated embryos were photographed under the same settings for exposure, gain and magnification for each picture using a MZFLIII (Leica) microscrope and fluorescent illumination for GFP using endow cube (Chroma Technology Corp., Rockingham, Vt.). Qimaging software and the Retiga Exi camera (Qimaging, Burnaby, BC Canada) were used to capture the images.
We previously described the generation of a transgenic zebrafish line, (Tg(Dusp6:d2EGFP)pt6) that expresses destabilized green fluorescent protein (d2EGFP) under the control of FGF signaling (Molina, G. A., et al. BMC Dev Biol 7, 62 (2007)). Using Tg(Dusp6:d2EGFP) embryos as a biosensor for FGF signaling, we screened over 5000 diverse compounds assembled from chemical libraries for small molecule modulators of this pathway. Five transgenic embryos at 24 hours post fertilization (hpf) were arrayed into each well of a 96-well plate containing test compounds at 10 μM. d2EGFP intensity in treated embryos was visually analyzed and compared to vehicle control (0.5% DMSO) after 6-8 hours. […] To confirm that BCI hyperactivated FGF signaling, we treated embryos prior to gastrulation (5 hpf), and we analyzed by whole mount in situ hybridization, the expression of ntl (zebrafish brachyury), a known FGF target gene (Latinkic, B. V. et al. Genes Dev 11, 3265-76 (1997)). […] We next determined the BCI structural features required to enhance FGF signaling. Two analogs, (E)-2-benzylidene-2,3-dihydro-1H-inden-1-one (BI) lacking the cyclohexylamino group, and 3-(cyclohexylamino)-2,3-dihydro-1H-inden-1-one (ICD) lacking the benzylidene group were synthesized).

Dusp6 = molecular target: T1, Dusp6 (Homo sapiens, UniProt Q16828); assay: Basal Dusp6 dephosphorylation of OMFP; format: biochemical; design: His; made in house
T1 sequence (Q16828 1-381): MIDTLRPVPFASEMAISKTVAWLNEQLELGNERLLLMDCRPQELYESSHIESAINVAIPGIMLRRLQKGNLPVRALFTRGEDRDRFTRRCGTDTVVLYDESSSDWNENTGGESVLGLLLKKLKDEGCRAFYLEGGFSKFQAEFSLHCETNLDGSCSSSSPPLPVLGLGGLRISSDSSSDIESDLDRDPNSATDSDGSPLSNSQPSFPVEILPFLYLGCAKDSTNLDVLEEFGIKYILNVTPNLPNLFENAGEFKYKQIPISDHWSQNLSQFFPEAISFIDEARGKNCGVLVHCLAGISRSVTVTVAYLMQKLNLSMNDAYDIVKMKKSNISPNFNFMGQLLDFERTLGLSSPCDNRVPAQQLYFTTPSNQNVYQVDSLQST
Description: For OMFP based ERK2 induced activation of Dusp6, recombinant His-tagged Dusp6 was expressed from a bacterial expression vector and 250 ng were incubated with the indicated concentrations of NSC95397 or BCI. OMFP was added at its apparent Km (100 μM) (Vogt, A. et al. J Biol Chem 280, 19078-86 (2005)). The final reaction volume was 15 μl. After 1 h at RT, OMF fluorescence was measured on an M5 multimode reader (Molecular Devices) at excitation/emission wavelengths of 485/525 nm. To assay activated Dusp6, 210 ng or 2.1 μg of recombinant ERK2 (Cell signaling) were added to Dusp6(210 ng)/BCI(100 μM) mixtures to measure activation at 1:1 and 1:10 ratio of substrate to enzyme. OMFP was immediately added and fluorescence (ex485/em525 nm) was read every 10 min for 130 min. Fold activation was calculated at 60 mins in each experiment.

Cdc25B = molecular target: T2, Cdc25B (Homo sapiens, UniProt P30305); assay: OMFP phosphatase assay, Cdc25B; format: biochemical; settings: 100 μM, positive control
T2 sequence (P30305 1-580): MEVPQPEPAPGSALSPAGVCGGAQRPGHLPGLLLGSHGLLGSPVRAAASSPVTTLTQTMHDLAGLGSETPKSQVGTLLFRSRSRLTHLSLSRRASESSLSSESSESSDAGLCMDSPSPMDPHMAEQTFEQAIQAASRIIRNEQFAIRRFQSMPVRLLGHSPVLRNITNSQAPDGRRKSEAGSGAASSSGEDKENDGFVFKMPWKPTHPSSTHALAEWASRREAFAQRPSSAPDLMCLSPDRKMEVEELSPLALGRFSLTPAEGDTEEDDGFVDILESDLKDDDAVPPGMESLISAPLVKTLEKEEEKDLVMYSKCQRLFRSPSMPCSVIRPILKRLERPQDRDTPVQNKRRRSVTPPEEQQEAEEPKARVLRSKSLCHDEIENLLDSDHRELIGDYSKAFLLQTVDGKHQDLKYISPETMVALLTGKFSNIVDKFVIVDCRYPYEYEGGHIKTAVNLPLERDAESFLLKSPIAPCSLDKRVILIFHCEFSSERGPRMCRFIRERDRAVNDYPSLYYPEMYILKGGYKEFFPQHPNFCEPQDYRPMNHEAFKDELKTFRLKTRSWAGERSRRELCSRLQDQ
Description: (§1) Enzyme activities in the presence or absence of BCI were measured using the artificial substrate […] at concentrations equal to the Km of each enzyme (Cdc25B, PTP1B & Dusp3/VHR) and at optimal pH for individual enzyme activity in a 96-well microtiter plate assay based on previously described methods by Lazo et al. (J Med Chem 44, 4042-9 (2001) and Lazo, J. S. et al. Bioorg Med Chem 14, 5643-50 (2006)). Briefly, the standard assay conditions contained 0.02 mg/ml OMFP in assay buffer (30 mM Tris-HCl (pH8.0), 75 mM NaCl, 1 mM EDTA, 0.33% BSA and 1 mM DTT). Fluorescence emission was measured after a sixty-minute incubation period at ambient temperature using a multiwell plate reader (SpectraMax m5, […]; excitation 485 nm, emission 525 nm). Sodium orthovanadate (100 μM) was used as a positive control for full phosphatase inhibition. IC50 concentrations were determined from three experiments using 10 concentrations of BCI ranging from 300 μM to 15.2 nM and GraphPad Prism 5.0 software.

Dusp3/VHR = Dusp3/VHR (Homo sapiens, UniProt P51452); assay: OMFP phosphatase assay, Dusp3/VHR; format: biochemical; settings: 100 μM, positive control
Description: as §1

PTP1B = molecular target: T3, PTP1B (Homo sapiens, UniProt P18031); assay: OMFP phosphatase assay, PTP1B; format: biochemical; settings: 100 μM, positive control
T3 sequence (P18031 1-435): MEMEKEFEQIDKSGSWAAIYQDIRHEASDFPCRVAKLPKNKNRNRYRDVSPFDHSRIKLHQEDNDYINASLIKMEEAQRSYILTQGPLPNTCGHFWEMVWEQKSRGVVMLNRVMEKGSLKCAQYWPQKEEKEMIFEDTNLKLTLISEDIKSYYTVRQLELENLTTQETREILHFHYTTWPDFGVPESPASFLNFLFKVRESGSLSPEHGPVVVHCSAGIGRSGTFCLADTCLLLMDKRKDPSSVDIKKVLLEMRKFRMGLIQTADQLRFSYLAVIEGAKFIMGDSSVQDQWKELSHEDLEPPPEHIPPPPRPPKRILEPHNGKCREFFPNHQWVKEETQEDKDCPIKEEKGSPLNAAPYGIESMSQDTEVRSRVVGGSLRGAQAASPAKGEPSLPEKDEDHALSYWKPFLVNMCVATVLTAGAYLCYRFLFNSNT
Description: as §1

Sequence of Dusp3/VHR (P51452 whole entry): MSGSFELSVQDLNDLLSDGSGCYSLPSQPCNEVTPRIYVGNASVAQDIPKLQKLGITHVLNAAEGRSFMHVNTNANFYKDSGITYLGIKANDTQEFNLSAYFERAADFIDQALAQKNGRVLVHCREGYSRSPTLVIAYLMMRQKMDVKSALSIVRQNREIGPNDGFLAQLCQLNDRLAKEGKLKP

SMILES: O=C1/C(=C/c2ccccc2)C(NC2CCCCC2)c2ccccc21 (single isomer, unassigned; (-)) [(−)-BCI]
activity of the levorotatory enantiomer relative to the dextrorotatory form [1]: twice
Activity (BCI = 100) [1]: 156

SMILES: O[C@H]1/C(=C/c2ccccc2)[C@H](NC2CCCCC2)c2ccccc21 (stereo in doubt) [Compound 18, 2-Benzylidene-3-cyclohexylaminoindan-1-ol]
Activity (BCI = 100) [1]: 26

SMILES: O=C1/C(=C/c2ccccc2)Cc2ccccc21 [Compound 1, (E)-2-benzylidene-2,3-dihydro-1H-inden-1-one]
d2EGFP fluorescence in treated transgenic embryos [2]: inactive
in vivo activity relative to BCI, in words [1]: inactive
Activity (BCI = 100) [1]: 0

SMILES: O=C1/C(=C/c2ccccc2)C(NC2CCCC2)c2ccccc21 (stereo not shown) [Compound 4]
Activity (BCI = 100) [1]: 123

SMILES: O=C1/C(=C/c2ccccc2)C(NC2CCCCCC2)c2ccccc21 (stereo not shown) [Compound 5, 2-Benzylidene-3-cycloheptylaminoindan-1-one]
Activity (BCI = 100) [1]: 127

SMILES: O=C1/C(=C/c2ccccc2)C(Nc2ccccc2)c2ccccc21 (stereo not shown) [Compound 6]
Activity (BCI = 100) [1]: 7

SMILES: O=C1/C(=C/c2ccccc2)C(N2CCCCC2)c2ccccc21 (stereo not shown) [Compound 7]
Activity (BCI = 100) [1]: 114

SMILES: O=C1/C(=C/c2ccccc2)C(N2CCOCC2)c2ccccc21 (stereo not shown) [Compound 9]
Activity (BCI = 100) [1]: 114

SMILES: O=C1/C(=C/c2ccccc2)C(N2CCSCC2)c2ccccc21 (stereo not shown) [Compound 10]
Activity (BCI = 100) [1]: 27

SMILES: O=C1/C(=C/c2ccccc2)C(N2CCNCC2)c2ccccc21 (stereo not shown) [Compound 11]
Activity (BCI = 100) [1]: 22

SMILES: CN1CCN(C2/C(=C\c3ccccc3)C(=O)c3ccccc32)CC1 (stereo not shown) [Compound 12]
Activity (BCI = 100) [1]: 0

SMILES: CC(=O)N1CCN(C2/C(=C\c3ccccc3)C(=O)c3ccccc32)CC1 (stereo not shown) [Compound 13]
Activity (BCI = 100) [1]: 47

SMILES: O=C1/C(=C/c2ccc(Cl)cc2)C(NC2CCCCC2)c2ccccc21 (stereo not shown) [Compound 14]
activity as compared to BCI [1]: 52%
Activity (BCI = 100) [1]: 52

SMILES: N#Cc1ccc(/C=C2/C(=O)c3ccccc3C2NC2CCCCC2)cc1 (stereo not shown) [Compound 15]
activity as compared to BCI [1]: 20%
Activity (BCI = 100) [1]: 20

SMILES: O=C1N[C@H]2[C@H](CS[C@H]2CCCCC(=O)N[C@H]2CC[C@H](NC3/C(=C\c4ccccc4)C(=O)c4ccccc43)CC2)N1 (stereo partly shown) [Compound 19]
in vivo activity relative to BCI, in words [1]: no effect on FGF signaling
Activity (BCI = 100) [1]: No activity,

effect on basal Dusp6 activity toward OMFP (Dusp6): blocked basal Dusp6 activity toward OMFP
SMILES: O=C1C(SCCO)=C(SCCO)C(=O)c2ccccc21 [NSC95397, 2,3-bis(2-hydroxyethylthio)naphthalene-1,4-dione, reference compound]

inhibition of Cdc25B (Cdc25B): 100%
inhibition of Dusp3/VHR (Dusp3/VHR): 100%
inhibition of PTP1B (PTP1B): 100%
SMILES: [Na+].[Na+].[Na+].[O]=[V]([O-])([O-])[O-] [Sodium orthovanadate, reference compound]
